Molecular target: T1, Glucocorticoid receptor (Rattus norvegicus, UniProt P06536)
T1 construct: Thymus cytosol of the adrenalectomized rat; from tissue; host or cells: thymus cytosol of adrenalectomized rat
T1 sequence (P06536 1-795): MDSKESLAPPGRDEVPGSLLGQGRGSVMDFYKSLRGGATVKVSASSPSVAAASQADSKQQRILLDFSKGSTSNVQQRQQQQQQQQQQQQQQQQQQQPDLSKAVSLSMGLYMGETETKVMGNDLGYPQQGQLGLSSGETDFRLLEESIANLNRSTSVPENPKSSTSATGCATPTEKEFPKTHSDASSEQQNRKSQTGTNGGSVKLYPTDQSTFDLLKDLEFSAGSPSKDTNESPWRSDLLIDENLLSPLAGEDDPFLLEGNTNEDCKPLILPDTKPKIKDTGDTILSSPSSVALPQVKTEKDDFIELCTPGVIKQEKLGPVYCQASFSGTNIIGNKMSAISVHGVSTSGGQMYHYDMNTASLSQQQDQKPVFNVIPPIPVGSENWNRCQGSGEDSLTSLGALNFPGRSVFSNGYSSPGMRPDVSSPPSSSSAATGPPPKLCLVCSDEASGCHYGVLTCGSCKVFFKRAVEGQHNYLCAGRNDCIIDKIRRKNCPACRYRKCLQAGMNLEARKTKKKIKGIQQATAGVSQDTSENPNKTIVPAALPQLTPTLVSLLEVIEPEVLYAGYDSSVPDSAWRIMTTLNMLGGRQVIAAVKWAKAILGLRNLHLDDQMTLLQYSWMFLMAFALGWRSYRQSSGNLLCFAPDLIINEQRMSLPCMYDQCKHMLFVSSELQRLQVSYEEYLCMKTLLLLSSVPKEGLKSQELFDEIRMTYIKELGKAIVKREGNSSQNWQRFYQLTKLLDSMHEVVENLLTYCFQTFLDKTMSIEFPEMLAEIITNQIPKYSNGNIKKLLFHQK
Experiment: Receptor binding affinity, glucocorticoid receptor (competitive binding, 3H-dexamethasone)
Conditions: Dexamethasone = 100%; thymus cytosol of adrenalectomized rat
Protocol: The receptor binding affinity was determined by competitive binding of a specifically binding ^3H-labeled hormone (tracer) and the compound to be tested on receptors in the cytosol from animal target organs. In this case, receptor saturation and reaction equilibrium were sought.
The tracers and increasing concentrations of the compound to be tested (competitor) were co-incubated with the receptor-containing cytosol fraction at 0-4° C. over 18 hours. After separation of the unbonded tracer with carbon-dextran suspension, the receptor-bonded tracer portion was measured for each concentration, and the IC50 was determined from the concentration sequence. As a quotient of the IC50 values of the reference substance and the compound to be tested (×100%), the relative molar binding affinity (RBA) was calculated (RBA of the reference substance=100%).
Thymus cytosol of the adrenalectomized rat, thymi stored at −30° C.; buffer: TED. Tracer: ^3H-Dexamethasone, 20 nmol; reference substance: dexamethasone.

## CC1(O)CCC2C3CCC4=CC(=O)CCC4=C3C(c3ccc(C=NO)cc3)CC21C (stereo not drawn) [Example 2, 4-(17β-Hydroxy-17α-methyl-3-oxoestra-4,9-dien-11β-yl)benzaldehyde-1(E)-oxime]
  GR relative molar binding affinity (RBA): 12%

## C[C@]12C[C@H](c3ccc(/C=N/O)cc3)C3=C4CCC(=O)C=C4CC[C@H]3[C@@H]1CC[C@@H]2O [Example 1, 4-(17β-Hydroxy-3-oxoestra-4,9-dien-11β-yl)benzaldehyde-1(E)-oxime]
  GR relative molar binding affinity (RBA): 3%

Reference: patent publication US7550451B2, “Progesterone receptor modulators with increased antigonadotropic activity for female birth control and hormone replacement therapy” (Bayer Schering Pharma AG, priority 2002, dated 2009)
